Test results reported in ChEMBL document CHEMBL1201862, “PubChem BioAssay data set” (2004).
One block for each compound: values may come before it. Active and inactive are the calls of the source.

What was measured:
[1] = target: T1, Heat shock factor protein 1 (Mus musculus, UniProt P38532); assay: enhancement of HSF1-driven luciferase signal – cell-based, NIH3T3, luminescence, dose retest, confirmation (AID 435004); assay type: functional;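 further: stress induced by proteasome inhibitor MG132 added 30 min after compound; luciferase reporter driven by HSF1 response element in NIH3T3 cells; actives raise luminescence as potentiators of the MG132 stress response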
T1 sequence (P38532 whole entry): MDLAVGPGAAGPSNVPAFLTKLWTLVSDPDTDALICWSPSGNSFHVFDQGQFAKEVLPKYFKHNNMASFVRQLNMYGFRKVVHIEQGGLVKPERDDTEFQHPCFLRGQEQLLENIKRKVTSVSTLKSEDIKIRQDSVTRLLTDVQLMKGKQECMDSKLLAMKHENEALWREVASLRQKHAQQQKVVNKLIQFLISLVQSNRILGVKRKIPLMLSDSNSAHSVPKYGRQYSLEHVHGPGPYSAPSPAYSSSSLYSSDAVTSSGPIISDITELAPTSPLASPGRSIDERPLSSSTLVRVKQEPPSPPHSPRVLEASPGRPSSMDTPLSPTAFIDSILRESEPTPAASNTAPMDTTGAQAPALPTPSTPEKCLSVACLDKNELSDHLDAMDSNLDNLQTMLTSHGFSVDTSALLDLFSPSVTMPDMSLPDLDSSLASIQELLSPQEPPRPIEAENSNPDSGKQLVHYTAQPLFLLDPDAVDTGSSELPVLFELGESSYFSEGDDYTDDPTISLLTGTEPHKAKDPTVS

[2] = tested on: H9c2; assay: cells; assay type: functional, cell-based; conditions: Rattus norvegicus, H9c2, Myocardium;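 further: confirmatory concentration-response retest of ultra-high-throughput screening hits for modulation of myocardial damage; cell death induced by hydrogen peroxide oxidative stress; compound pretreatment for 60 min then peroxide exposure for 2 h; potency is for protecting the cells against peroxide damage rather than for killing them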
[3] = target: Glyceraldehyde-3-phosphate dehydrogenase (Homo sapiens, UniProt P04406)
[4] = target: Large T antigen (Simian virus 40, UniProt P03070); assay type: functional, Betapolyomavirus macacae;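 further: Confirmatory-stage PubChem screen for compounds that inhibit SV40 T antigen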
[5] = target: T2, Carboxy-terminal domain RNA polymerase II polypeptide A small phosphatase 1 (Homo sapiens, UniProt Q9GZU7); assay: CTDSP1 inhibitors, concentration-response, biochemical, absorbance readout, ultra-high-throughput screen actives (AID 540297); assay type: functional
T2 sequence (Q9GZU7 whole entry): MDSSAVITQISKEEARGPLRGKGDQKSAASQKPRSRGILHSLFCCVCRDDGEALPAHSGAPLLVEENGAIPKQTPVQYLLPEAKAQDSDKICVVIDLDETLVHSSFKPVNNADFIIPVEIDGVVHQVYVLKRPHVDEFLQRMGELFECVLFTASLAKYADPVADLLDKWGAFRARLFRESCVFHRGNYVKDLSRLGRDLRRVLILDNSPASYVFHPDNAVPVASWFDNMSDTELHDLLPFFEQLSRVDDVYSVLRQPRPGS

[6] = tested on: P388/ADR; assay: cells; assay type: functional; conditions: Mus musculus
[7] = tested on: SN12K1; assay: cells; assay type: functional; conditions: Homo sapiens
[8] = tested on: P388; assay: cells; assay type: functional; conditions: Mus musculus
[9] = growth inhibition of yeast DHODH-expressing 3D7 parasites – SYBR Green, dry powder samples, dose response (AID 1159570); assay type: functional, cell-based;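 further: parasite growth measured after 72 hours of compound exposure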
[10] = P. falciparum Dd2 growth inhibitors, dose response, SYBR Green, cherry-picked samples (AID 1159567); assay type: functional, cell-based
[11] = Dd2 malaria parasite growth inhibition potency – SYBR Green, dry powder samples, dose response (AID 1159566); assay type: functional, cell-based;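 further: potency for growth inhibition with lower SYBR green DNA signal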
[12] = growth inhibition of PfATP4-mutant resistant parasites – NITD609-resistant line, SYBR Green, dry powder, dose response (AID 1159571); assay type: functional, cell-based;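 further: parasites synchronized at ring stage by sorbitol before testing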
[13] = target: T3, Leucine aminopeptidase (Plasmodium falciparum 3D7, UniProt Q8IL11); assay: P. falciparum M17LAP inhibitors, primary screen, biochemical, fluorogenic H-Leu-NHMec substrate, 1536-well (AID 1619); assay type: functional
T3 sequence (Q8IL11 whole entry): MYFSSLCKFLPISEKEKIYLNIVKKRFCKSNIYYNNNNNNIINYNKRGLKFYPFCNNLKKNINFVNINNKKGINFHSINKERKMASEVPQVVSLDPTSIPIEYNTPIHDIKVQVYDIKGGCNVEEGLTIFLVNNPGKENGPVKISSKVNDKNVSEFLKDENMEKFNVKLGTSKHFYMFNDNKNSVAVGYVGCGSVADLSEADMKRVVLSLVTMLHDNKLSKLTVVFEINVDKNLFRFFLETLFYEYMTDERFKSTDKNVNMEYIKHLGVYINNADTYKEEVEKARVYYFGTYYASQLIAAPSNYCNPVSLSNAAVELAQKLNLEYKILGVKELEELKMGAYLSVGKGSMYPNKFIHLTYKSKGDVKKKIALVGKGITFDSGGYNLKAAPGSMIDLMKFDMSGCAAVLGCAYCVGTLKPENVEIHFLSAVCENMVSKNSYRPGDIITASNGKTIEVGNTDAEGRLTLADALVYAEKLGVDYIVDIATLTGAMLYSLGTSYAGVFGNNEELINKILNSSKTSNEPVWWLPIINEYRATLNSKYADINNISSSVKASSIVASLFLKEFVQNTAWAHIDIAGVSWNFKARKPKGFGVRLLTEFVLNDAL

[14] = target: FAD-linked sulfhydryl oxidase ALR (Homo sapiens, UniProt P55789); assay: ALR-catalysed DTT oxidation blockers – biochemical, H2O2 detection, luminescence, cherry-pick, dose response (AID 493248)
[15] = target: T4, Rac GTPase-activating protein 1 (Homo sapiens, UniProt Q9H0H5); assay: blockers of MgcRacGAP-driven Rac1 GTP hydrolysis – biochemical, ADP Hunter fluorescence, primary and confirmatory, confirmation (AID 624330); assay type: functional
T4 sequence (Q9H0H5 whole entry): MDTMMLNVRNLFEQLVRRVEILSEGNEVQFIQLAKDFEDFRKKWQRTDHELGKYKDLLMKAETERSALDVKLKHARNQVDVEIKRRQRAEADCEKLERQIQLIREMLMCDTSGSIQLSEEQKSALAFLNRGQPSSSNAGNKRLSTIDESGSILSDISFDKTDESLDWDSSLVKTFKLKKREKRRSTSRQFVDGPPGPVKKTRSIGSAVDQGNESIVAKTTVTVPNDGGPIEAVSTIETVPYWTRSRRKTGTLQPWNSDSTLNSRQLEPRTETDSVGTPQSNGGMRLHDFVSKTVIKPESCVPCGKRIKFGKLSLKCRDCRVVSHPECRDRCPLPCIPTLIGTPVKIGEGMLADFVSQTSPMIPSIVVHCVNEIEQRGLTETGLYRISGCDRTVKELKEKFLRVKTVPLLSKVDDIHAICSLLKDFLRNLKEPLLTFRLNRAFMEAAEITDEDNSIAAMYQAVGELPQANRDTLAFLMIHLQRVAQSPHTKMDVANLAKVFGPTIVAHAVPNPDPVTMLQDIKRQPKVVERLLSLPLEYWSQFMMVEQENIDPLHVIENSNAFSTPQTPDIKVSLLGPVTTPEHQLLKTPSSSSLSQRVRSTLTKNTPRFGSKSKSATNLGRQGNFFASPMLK

Sequence of Large T antigen (P03070 whole entry, the tested form may be a part): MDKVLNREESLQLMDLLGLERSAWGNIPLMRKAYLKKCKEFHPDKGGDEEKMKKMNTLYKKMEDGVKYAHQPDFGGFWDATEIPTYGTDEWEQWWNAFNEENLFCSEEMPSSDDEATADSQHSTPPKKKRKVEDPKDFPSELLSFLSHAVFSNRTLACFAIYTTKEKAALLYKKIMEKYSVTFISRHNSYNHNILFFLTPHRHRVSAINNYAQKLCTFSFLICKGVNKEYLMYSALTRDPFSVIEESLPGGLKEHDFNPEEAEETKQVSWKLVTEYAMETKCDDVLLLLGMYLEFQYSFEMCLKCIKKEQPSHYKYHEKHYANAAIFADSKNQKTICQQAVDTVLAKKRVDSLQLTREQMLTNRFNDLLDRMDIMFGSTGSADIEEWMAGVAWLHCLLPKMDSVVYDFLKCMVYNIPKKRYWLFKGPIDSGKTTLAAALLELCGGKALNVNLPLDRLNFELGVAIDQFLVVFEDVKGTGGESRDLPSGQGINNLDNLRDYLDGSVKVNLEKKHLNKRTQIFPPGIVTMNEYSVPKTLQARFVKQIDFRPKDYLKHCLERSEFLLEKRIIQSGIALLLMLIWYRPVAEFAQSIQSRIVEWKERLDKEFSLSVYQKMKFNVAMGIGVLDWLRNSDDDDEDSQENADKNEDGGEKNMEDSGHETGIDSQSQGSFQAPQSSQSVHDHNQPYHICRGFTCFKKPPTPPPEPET
Sequence of Glyceraldehyde-3-phosphate dehydrogenase (P04406 whole entry): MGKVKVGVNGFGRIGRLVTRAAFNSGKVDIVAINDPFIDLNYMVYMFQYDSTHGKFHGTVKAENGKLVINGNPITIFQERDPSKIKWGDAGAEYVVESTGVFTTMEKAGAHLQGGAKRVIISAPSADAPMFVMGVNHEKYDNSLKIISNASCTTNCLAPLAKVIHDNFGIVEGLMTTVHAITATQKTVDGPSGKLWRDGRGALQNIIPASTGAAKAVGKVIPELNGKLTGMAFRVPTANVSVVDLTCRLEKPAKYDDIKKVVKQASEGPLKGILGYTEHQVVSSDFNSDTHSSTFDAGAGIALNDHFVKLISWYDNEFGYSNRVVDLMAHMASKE
Sequence of FAD-linked sulfhydryl oxidase ALR (P55789 whole entry): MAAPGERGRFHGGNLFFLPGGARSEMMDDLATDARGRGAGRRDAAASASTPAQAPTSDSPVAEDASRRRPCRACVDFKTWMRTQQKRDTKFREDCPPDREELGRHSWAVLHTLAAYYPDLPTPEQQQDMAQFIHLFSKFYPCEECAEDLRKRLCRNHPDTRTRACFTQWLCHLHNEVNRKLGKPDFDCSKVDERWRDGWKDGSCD

SMILES: Cc1cc(C)n2nc(C(=O)N/N=C/c3c4ccccc4cc4ccccc34)nc2n1
- EC50 [1]: > 260 µM (inactive)
- IC50 [2]: > 79 µM (inactive)

- IC50 [3]: > 100 µM (not active)
SMILES: CCOc1ccc(Cl)cc1S(=O)(=O)Nc1cccnc1

SMILES: O=C(CN1CCN(Cc2ccccc2)CC1)Nc1ccc([N+](=O)[O-])cc1C(=O)Nc1ccccc1F
- IC50 [2]: > 79 µM (inactive)

SMILES: C[C@H](CCC(=O)O)[C@H]1CC[C@H]2[C@@H]3CC[C@@H]4C[C@H](O)CC[C@]4(C)[C@H]3CC[C@]12C [LITHOCHOLIC ACID]
- IC50 [4]: 26.1 µM (active)
- IC50 [5]: 4.82 µM (active)

SMILES: O=C(O)CCCCCCCCC(=O)O [SEBACIC ACID]
- GI50 [6]: > 500 µM (inactive)
- GI50 [7]: > 500 µM (inactive)
- GI50 [8]: 316 µM (inactive)

- IC50 [3]: > 50 µM (inconclusive)
SMILES: COc1ccc(N2CCN(C3=C(Cl)C(=O)N(c4ccc(Cl)nc4)C3=O)CC2)cc1

SMILES: CC(C)NC(=O)N1[C@@H](CO)[C@@H](c2ccccc2)C12CN(Cc1ccc(F)cc1)C2
- AC50 [9]: 4 µM (active)
- AC50 [10]: 3.25 µM (active)
- AC50 [11]: 1.95 µM (active)
- AC50 [12]: 2.17 µM (active)

SMILES: COc1ccc(Cl)cc1NC(=O)CCS(=O)(=O)c1cc2c(cc1C)NC(=O)CO2
- IC50 [2]: > 79 µM (inactive)

- IC50 [13]: 13.9 µM (active)
SMILES: CCOC(=O)COc1ncn(-c2ccccc2)n1

- IC50 [13]: 11.5 µM (active)
SMILES: S=c1[nH]c(-c2ccccc2)nn1-c1ccccc1

SMILES: C[C@@H]1CN([C@@H](C)CO)C(=O)c2cccc(NC(=O)c3nc4ccccc4s3)c2O[C@H]1CN(C)C(=O)Nc1ccc2c(c1)OCO2
- AC50 [9]: 0.985 µM (active)
- AC50 [10]: 2.35 µM (active)
- AC50 [11]: 1.37 µM (active)
- AC50 [12]: 1.18 µM (active)

SMILES: CCCC#Cc1ccc2c(c1)O[C@H](CN(C)C(=O)Nc1ccc(OC)cc1)[C@H](C)CN([C@H](C)CO)S2(=O)=O
- AC50 [9]: 1.37 µM (active)
- AC50 [10]: 1.94 µM (active)
- AC50 [11]: 1.82 µM (active)
- AC50 [12]: 1.45 µM (active)

- IC50 [4]: > 100 µM (active)
- AC50 [14]: 0.108 µM (active)
- IC50 [15]: 30.8 µM (active)
SMILES: Cc1cc(NS(=O)(=O)c2ccc(Nc3nc(-c4ccc(O)cc4)cs3)cc2)no1

SMILES: Cn1c2ccccc2c(=O)c2c(O)cc3c(c21)C=CC(C)(C)O3 [NORACRONYCINE]
- GI50 [6]: > 25 µM (inactive)
- GI50 [7]: > 25 µM (inactive)
- GI50 [8]: > 25 µM (inactive)
